From patent US20250163022A1, “PARP1 INHIBITORS” (Synnovation Therapeutics, Inc., priority 2021, published 2025)

Each compound was assayed against T1, PARP1 (Homo sapiens, UniProt P09874) (assay: In-Cell Western measurement of PARylation in PARP1 WT and knockout cells). Settings: HeLa cells (wide-type with PARP1 gene); hydrogen peroxide-induced PARylation; compounds 30 min, then 10 mM hydrogen peroxide 15 min; read-out: HeLa_WT_IC50.
T1 construct: HeLa cells (wide-type with PARP1 gene) were purchased from ATCC; host or cells: HeLa (wild type)
T1 sequence (P09874 whole entry): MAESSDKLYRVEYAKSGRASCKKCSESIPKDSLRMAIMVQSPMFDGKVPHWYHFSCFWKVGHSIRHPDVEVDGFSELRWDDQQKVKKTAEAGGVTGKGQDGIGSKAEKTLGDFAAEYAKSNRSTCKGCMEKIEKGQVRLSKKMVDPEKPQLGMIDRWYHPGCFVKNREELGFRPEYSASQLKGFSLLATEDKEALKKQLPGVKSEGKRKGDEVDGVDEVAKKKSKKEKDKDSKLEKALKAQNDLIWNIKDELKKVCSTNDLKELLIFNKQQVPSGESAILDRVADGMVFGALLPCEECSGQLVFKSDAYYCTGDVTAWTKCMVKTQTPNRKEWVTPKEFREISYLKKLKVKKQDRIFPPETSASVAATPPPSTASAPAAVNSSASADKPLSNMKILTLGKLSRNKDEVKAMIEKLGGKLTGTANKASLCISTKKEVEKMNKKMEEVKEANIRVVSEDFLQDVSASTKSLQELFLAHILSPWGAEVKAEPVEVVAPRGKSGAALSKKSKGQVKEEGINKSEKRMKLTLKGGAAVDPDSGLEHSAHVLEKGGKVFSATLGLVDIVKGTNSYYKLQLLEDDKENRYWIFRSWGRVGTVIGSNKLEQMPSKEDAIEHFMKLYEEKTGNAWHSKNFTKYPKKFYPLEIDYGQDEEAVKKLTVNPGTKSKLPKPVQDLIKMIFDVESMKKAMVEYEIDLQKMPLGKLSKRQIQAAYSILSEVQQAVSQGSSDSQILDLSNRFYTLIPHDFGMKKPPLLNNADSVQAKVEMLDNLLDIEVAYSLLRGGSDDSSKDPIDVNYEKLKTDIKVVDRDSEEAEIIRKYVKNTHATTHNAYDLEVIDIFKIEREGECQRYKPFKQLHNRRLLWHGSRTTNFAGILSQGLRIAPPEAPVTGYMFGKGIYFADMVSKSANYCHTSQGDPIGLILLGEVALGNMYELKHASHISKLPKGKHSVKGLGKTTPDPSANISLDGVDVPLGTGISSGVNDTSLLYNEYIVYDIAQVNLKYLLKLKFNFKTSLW
Format: cell-based
Excerpt: The purpose of this cell-based assay is to measure the potency and selectivity of synthesized PARP inhibitors in suppressing hydrogen peroxide-induced PARylation in cells with and without PARP1 expression. Several cell lines were used in this assay. The human PARP1 knockout HEK-293T cell line (#ab266598) was purchased from Abcam, and its corresponding wide-type control is the human wild-type HEK-293T cell line (#ab255449). The HAP1 isogenic cell lines with and without the PARP1 gene (#HZGHC003943c006) were purchased from Horizon Discovery. HeLa cells (wide-type with PARP1 gene) were purchased from ATCC. Cells were cultured using complete medium containing 10% fetal bovine serum. One day before the assay, cells were seeded in 96-well plates at the density of 20,000 cells per well in 100 uL complete medium. Compounds were dissolved using DMSO and diluted to the working concentrations using complete medium. Cells were pre-treated with compounds for 30 min and then stimulated with 10 mM hydrogen peroxide for 15 min. After stimulation, cells were immediately fixed using ice-cold methanol for 20 min. After fixation, cells were washed using 1×PBST buffer for 3 times, 5 min each time, to eliminate residual methanol. Cells were blocked for 2 h at room temperature in blocking buffer (LI-COR Biosciences, #927-70001). Primary antibody was diluted in diluent buffer (LI-COR Biosciences, #927-75001, 1:200) at 50 uL per well. Cells were incubated with the primary antibody at 4° C. for 18 h. The wells were then washed using 1×PBST for 3 times, 5 min each time. IRDye® 680RD Goat anti-Mouse IgG (H+L) secondary antibody was diluted at 1/2000 using the diluent buffer and added at 100 μL per well. Secondary antibody incubation was for 1 h at room temperature. Cells were then washed using 1×PBST for 3 times, 5 min each time. The signal was detected and analyzed using LI-COR Odyssey DLx Imaging system. Data were collected and further processed using GraphPad Prism for IC50 estimation.
For `CCn1c(=O)[nH]c2cc(CN3CCN(c4ccc(C(=O)NC)nc4)CC3)ccc2c1=O` [Compound I-1, 5-(4-((3-Ethyl-2,4-dioxo-1,2,3,4-tetrahydroquinazolin-7-yl)methyl)piperazin-1-yl)-N-methylpicolinamide], the IC50 was no more than 10 nM. In the case of `CCN1Cc2ccc(CN3CCN(c4ccc(C(=O)NC)nc4)CC3)cc2NC1=O` [Compound I-2, 5-(4-((3-Ethyl-2-oxo-1,2,3,4-tetrahydroquinazolin-7-yl)methyl)piperazin-1-yl)-N-methylpicolinamide], the IC50 is reported as 10 to 100 nM. Compound `CNC(=O)c1ccc(N2CCN(Cc3ccc4c(c3)NC(=O)C3CC43)CC2)cn1` (stereo not shown) [Compound I-3, N-Methyl-5-(4-((2-oxo-1a,2,3,7b-tetrahydro-1H-cyclopropa[c]quinolin-5-yl)methyl)piperazin-1-yl)picolinamide] has an IC50 of 100 to 500 nM. With `CNC(=O)c1ccc(N2CCN(Cc3ccc4c5c(c(=O)[nH]c4c3)CCC5)CC2)cn1` [Compound I-4, N-methyl-5-(4-((4-oxo-2,3,4,5-tetrahydro-1H-cyclopenta[c]quinolin-7-yl)methyl)piperazin-1-yl)picolinamide] the IC50 was no more than 10 nM. `CNC(=O)c1ccc(N2CCN(Cc3ccc4c(c3)NC(=O)C3(CC3)C4)CC2)cn1` [Compound I-5, N-methyl-5-(4-((2′-oxo-1′,4′-dihydro-2′H-spiro[cyclopropane-1,3′-quinolin]-7′-yl)methyl)piperazin-1-yl)picolinamide] was tested, and the IC50 was 10 to 100 nM. `CNC(=O)c1ccc(N2CCN(Cc3cnc4c5c(c(=O)[nH]c4c3)CCC5)CC2)cn1` [Compound I-6, N-methyl-5-(4-((6-oxo-6,7,8,9-tetrahydro-5H-cyclopenta[c][1,5]naphthyridin-3-yl)methyl)piperazin-1-yl)picolinamide] was tested, and the IC50 was no more than 10 nM. Compound `CNC(=O)c1ccc(N2CCN(Cc3ccc4c(c3)[nH]c(=O)c3c4ccn3C)CC2)cn1` [Compound I-7, N-methyl-5-(4-((3-methyl-4-oxo-4,5-dihydro-3H-pyrrolo[2,3-c]quinolin-7-yl)methyl)piperazin-1-yl)picolinamide] has an IC50 of no more than 10 nM. `CNC(=O)c1ccc(N2CCN(Cc3ccc4c(c3)[nH]c(=O)c3ccn(C)c34)CC2)cn1` [Compound I-8, N-methyl-5-(4-((1-methyl-4-oxo-4,5-dihydro-1H-pyrrolo[3,2-c]quinolin-7-yl)methyl)piperazin-1-yl)picolinamide] was tested, and the IC50 was no more than 10 nM. With `CCn1c(=O)[nH]c2cc(CN3CCN(c4ccc(C(=O)NC)nc4)CC3)cnc2c1=O` [Compound I-9, 5-(4-((3-Ethyl-2,4-dioxo-1,2,3,4-tetrahydropyrido[3,2-d]pyrimidin-7-yl)methyl)piperazin-1-yl)-N-methylpicolinamide] the IC50 was 100 to 500 nM. With `CNC(=O)c1ccc(N2CCN(Cc3ccc4c(c3)[nH]c(=O)c3c4cnn3C)CC2)cn1` [Compound I-10, N-methyl-5-(4-((3-methyl-4-oxo-4,5-dihydro-3H-pyrazolo[3,4-c]quinolin-7-yl)methyl)piperazin-1-yl)picolinamide] the IC50 was 10 to 100 nM. In the case of `CCN1Cc2ncc(CN3CCN(c4ccc(C(=O)NC)nc4)CC3)cc2NC1=O` [Compound I-11, 5-(4-((3-Ethyl-2-oxo-1,2,3,4-tetrahydropyrido[3,2-d]pyrimidin-7-yl)methyl)piperazin-1-yl)-N-methylpicolinamide], the IC50 is reported as 10 to 100 nM. `CNC(=O)c1ccc(N2CCN(Cc3ccc4c(=O)n(CC(F)F)c(=O)[nH]c4c3)CC2)cn1` [Compound I-12, 5-(4-((3-(2,2-Difluoroethyl)-2,4-dioxo-1,2,3,4-tetrahydroquinazolin-7-yl)methyl)piperazin-1-yl)-N-methylpicolinamide] showed an IC50 of no more than 10 nM. Compound `CCc1cc2sc(CN3CCN(c4ccc(C(=O)NC)nc4)CC3)cc2[nH]c1=O` [Compound I-13, 5-(4-((6-Ethyl-5-oxo-4,5-dihydrothieno[3,2-b]pyridin-2-yl)methyl)piperazin-1-yl)-N-methylpicolinamide] has an IC50 of no more than 10 nM. `CCc1c2c3c(cc(CN4CCN(c5ccc(C(=O)NC)nc5)CC4)cc3[nH]c1=O)OCC2` [Compound I-14, 5-(4-((4-Ethyl-5-oxo-2,3,5,6-tetrahydropyrano[4,3,2-de]quinolin-8-yl)methyl)piperazin-1-yl)-N-methylpicolinamide] showed an IC50 of no more than 10 nM. `CCN1C(=O)Nc2cc(CN3CCN(c4ccc(C(=O)NC)nc4)CC3)cc3ncnc1c23` [Compound I-15, 5-(4-((3-Ethyl-2-oxo-2,3-dihydro-1H-pyrimido[4,5,6-de]quinazolin-8-yl)methyl)piperazin-1-yl)-N-methylpicolinamide] gave an IC50 of no more than 10 nM. In the case of `CCn1c(=O)[nH]c2cc(CN3CCN(c4ccc(C(=O)NC)nc4C)CC3)ccc2c1=O` [Compound I-16, 5-(4-((3-ethyl-2,4-dioxo-1,2,3,4-tetrahydroquinazolin-7-yl)methyl)piperazin-1-yl)-N,6-dimethylpicolinamide], the IC50 is reported as no more than 10 nM. `CCN1C(=O)Nc2cc(CN3CCN(c4ccc(C(=O)NC)nc4C)CC3)cc3ncnc1c23` [Compound I-17, 5-(4-((3-Ethyl-2-oxo-2,3-dihydro-1H-pyrimido[4,5,6-de]quinazolin-8-yl)methyl)piperazin-1-yl)-N,6-dimethylpicolinamide] gave an IC50 of no more than 10 nM. `CCN1C(=O)Nc2cc(CN3CCN(c4ccc(C(=O)NC)nc4C(F)(F)F)CC3)cc3ncnc1c23` [Compound I-18, 5-(4-((3-Ethyl-2-oxo-2,3-dihydro-1H-pyrimido[4,5,6-de]quinazolin-8-yl)methyl)piperazin-1-yl)-N-methyl-6-(trifluoromethyl)picolinamide] was tested, and the IC50 was no more than 10 nM. `CCN1C(=O)Nc2cc(CN3CCN(c4ccc(C(=O)NC)nc4F)CC3)cc3ncnc1c23` [Compound I-19, 5-(4-((3-ethyl-2-oxo-2,3-dihydro-1H-pyrimido[4,5,6-de]quinazolin-8-yl)methyl)piperazin-1-yl)-6-fluoro-N-methylpicolinamide] was tested, and the IC50 was no more than 10 nM. `CNC(=O)c1ccc(N2CCN(Cc3cnc4c5c(c(=O)[nH]c4c3)CCC5)CC2)c(C)n1` [Compound I-20, N,6-dimethyl-5-(4-((6-oxo-6,7,8,9-tetrahydro-5H-cyclopenta[c][1,5]naphthyridin-3-yl)methyl)piperazin-1-yl)picolinamide] showed an IC50 of no more than 10 nM. In the case of `CCn1c(=O)[nH]c2c(F)c(CN3CCN(c4ccc(C(=O)NC)nc4C)CC3)ccc2c1=O` [Compound I-21, 5-(4-((3-ethyl-8-fluoro-2,4-dioxo-1,2,3,4-tetrahydroquinazolin-7-yl)methyl)piperazin-1-yl)-N,6-dimethylpicolinamide], the IC50 is reported as no more than 10 nM. `CCn1c(=O)[nH]c2cc(CN3CCN(c4ccc(C(=O)NC)nc4C)CC3)cc(F)c2c1=O` [Compound I-22, 5-(4-((3-ethyl-5-fluoro-2,4-dioxo-1,2,3,4-tetrahydroquinazolin-7-yl)methyl)piperazin-1-yl)-N,6-dimethylpicolinamide] gave an IC50 of no more than 10 nM. For `CNC(=O)c1ccc(N2CCN(Cc3cnc4c5c(c(=O)[nH]c4c3)CCC5)CC2)c(C(F)(F)F)n1` [Compound I-23, N-methyl-5-(4-((6-oxo-6,7,8,9-tetrahydro-5H-cyclopenta[c][1,5]naphthyridin-3-yl)methyl)piperazin-1-yl)-6-(trifluoromethyl)picolinamide], the IC50 was no more than 10 nM. `CNC(=O)c1ccc(N2CCN(Cc3cnc4c5c(c(=O)[nH]c4c3)CCC5)CC2)c(F)n1` [Compound I-24, 6-Fluoro-N-methyl-5-(4-((6-oxo-6,7,8,9-tetrahydro-5H-cyclopenta[c][1,5]naphthyridin-3-yl)methyl)piperazin-1-yl)picolinamide] was tested, and the IC50 was no more than 10 nM. Work on `CNC(=O)c1ccc(N2CCN(Cc3ncc4c5c(c(=O)[nH]c4c3F)CCC5)CC2)c(C)n1` [Compound I-25, 5-(4-((4-Fluoro-6-oxo-6,7,8,9-tetrahydro-5H-cyclopenta[c][1,6]naphthyridin-3-yl)methyl)piperazin-1-yl)-N,6-dimethylpicolinamide] yielded an IC50 of no more than 10 nM. Work on `CNC(=O)c1ccc(N2CCN(Cc3ncc4c5c(c(=O)[nH]c4c3F)CCC5)CC2)cn1` [Compound I-26, 5-(4-((4-Fluoro-6-oxo-6,7,8,9-tetrahydro-5H-cyclopenta[c][1,6]naphthyridin-3-yl)methyl)piperazin-1-yl)-N-methylpicolinamide] yielded an IC50 of no more than 10 nM. With `CNC(=O)c1ccc(N2CCN(Cc3ncc4c5c(c(=O)[nH]c4c3F)CCC5)CC2)c(F)n1` [Compound I-27, 6-Fluoro-5-(4-((4-fluoro-6-oxo-6,7,8,9-tetrahydro-5H-cyclopenta[c][1,6]naphthyridin-3-yl)methyl)piperazin-1-yl)-N-methylpicolinamide] the IC50 was no more than 10 nM. Compound `CNC(=O)c1ccc(N2CCN(Cc3ncc4c5c(c(=O)[nH]c4c3F)CCC5)CC2)c(C(F)(F)F)n1` [Compound I-28, 5-(4-((4-Fluoro-6-oxo-6,7,8,9-tetrahydro-5H-cyclopenta[c][1,6]naphthyridin-3-yl)methyl)piperazin-1-yl)-N-methyl-6-(trifluoromethyl)picolinamide] has an IC50 of no more than 10 nM.
